Laboratory results: patent US20220062240A1, “METHODS OF TREATING CANCER USING A CLK INHIBITOR” (BioSplice Therapeutics, Inc., priority 2018, published 2022)
Read-outs that look alike come from different tables or passages of the source.

Columns and labels:
[1] = tested on: pancreatic cancer (8 cell lines); assay: CellTiter-Glo Viability Assay, pancreatic cancer; assay type: cell-based; details: Homo sapiens, inhibition of cancer cell proliferation
[2] = tested on: lung cancer (4 cell lines); assay: CellTiter-Glo Viability Assay, lung cancer; assay type: cell-based; details: Homo sapiens, inhibition of cancer cell proliferation
[3] = tested on: colorectal cancer (6 cell lines); assay: CellTiter-Glo Viability Assay, colorectal cancer; assay type: cell-based; details: Homo sapiens, inhibition of cancer cell proliferation
CLK2 = target: T1, CLK2 (Homo sapiens, UniProt P49760); assay: CLK2 kinase activity assay (Z-lyte, Ser/Thr 6 peptide); assay type: biochemical; details: recombinant CLK2 kinase, ATP 60 μM; read-out: EC50
T1 construct: purchased Thermo Fisher (Life Technologies), Z'-LYTE Kinase Assay Kits
T1 sequence (P49760 whole entry): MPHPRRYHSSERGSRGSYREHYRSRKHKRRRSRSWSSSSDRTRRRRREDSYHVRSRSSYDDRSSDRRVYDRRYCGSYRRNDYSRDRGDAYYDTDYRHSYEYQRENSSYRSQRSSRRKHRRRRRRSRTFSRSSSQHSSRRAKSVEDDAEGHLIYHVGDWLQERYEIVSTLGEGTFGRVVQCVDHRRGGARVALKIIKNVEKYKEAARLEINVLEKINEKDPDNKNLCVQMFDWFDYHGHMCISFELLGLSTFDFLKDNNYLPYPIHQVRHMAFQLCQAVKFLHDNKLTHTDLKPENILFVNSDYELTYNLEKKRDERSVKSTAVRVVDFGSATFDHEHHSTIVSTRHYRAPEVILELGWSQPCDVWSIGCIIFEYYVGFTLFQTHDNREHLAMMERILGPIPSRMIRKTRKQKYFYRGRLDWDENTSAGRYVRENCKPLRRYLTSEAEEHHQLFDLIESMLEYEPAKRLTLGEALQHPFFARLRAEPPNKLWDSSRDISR
Experimental: All reactions were performed in duplicate.

[4] = tested on: liver cancer (3 cell lines); assay: CellTiter-Glo Viability Assay, liver cancer; assay type: cell-based; details: Homo sapiens, inhibition of cancer cell proliferation
[5] = tested on: prostate cancer (5 cell lines); assay: CellTiter-Glo Viability Assay, prostate cancer; assay type: cell-based; details: Homo sapiens
[6] = tested on: haematopoietic & lymphoid tumors (13 cell lines); assay: CellTiter-Glo Viability Assay, haematopoietic & lymphoid tumors; assay type: cell-based; details: Homo sapiens, inhibition of cancer cell proliferation
all 50 cell lines = assay: CellTiter-Glo Viability Assay, average across all cell lines; assay type: cell-based; details: Homo sapiens; across all 50 cell lines; read-out: average EC50 for inhibition of cancer cell proliferation
Method in brief: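 Cells were plated at 300-3,000 per well in their own media, then treated with compound in duplicate, with DMSO wells as controls. After four days at 37° C and 5% CO2, CellTiter-Glo was added, and luminescence was read. EC50s were fitted.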

[7] = tested on: ovarian cancer (4 cell lines); assay: CellTiter-Glo Viability Assay, ovarian cancer; assay type: cell-based; details: Homo sapiens, inhibition of cancer cell proliferation
HCC1599 = assay: CellTiter-Glo Viability Assay, breast cancer; assay type: cell-based; details: Homo sapiens, 96 h; HCC1599, breast cancer, four days; read-out: EC50
CAMA1 = assay: CellTiter-Glo Viability Assay, breast cancer; assay type: cell-based; details: Homo sapiens, CAMA-1, 96 h; CAMA1, breast cancer, four days; read-out: EC50
T47D = assay: CellTiter-Glo Viability Assay, breast cancer; assay type: cell-based; details: Homo sapiens, 96 h, breast cancer, four days, read-out: EC50
ZR-75-1 = assay: CellTiter-Glo Viability Assay, breast cancer; assay type: cell-based; details: Homo sapiens, 96 h; ZR-75-1, breast cancer, four days; read-out: EC50
BT-549 = assay: CellTiter-Glo Viability Assay, breast cancer; assay type: cell-based; details: Homo sapiens, 96 h; BT-549, breast cancer, four days; read-out: EC50
MCF7 = assay: CellTiter-Glo Viability Assay, breast cancer; assay type: cell-based; details: Homo sapiens, 96 h; MCF7, breast cancer, four days; read-out: EC50
DU4475 = assay: CellTiter-Glo Viability Assay, breast cancer; assay type: cell-based; details: Homo sapiens, DU-4475, 96 h; DU4475, breast cancer, four days; read-out: EC50
MDA-MB-231-Luc = assay: CellTiter-Glo Viability Assay, breast cancer; assay type: cell-based; details: Homo sapiens, 96 h; MDA-MB-231-Luc, breast cancer, four days; read-out: EC50
CLK3 = CLK3 (Homo sapiens, UniProt P49761); assay: CLK3 kinase activity assay (Z-lyte, Ser/Thr 18 peptide)
CLK3, sequence (P49761 whole entry): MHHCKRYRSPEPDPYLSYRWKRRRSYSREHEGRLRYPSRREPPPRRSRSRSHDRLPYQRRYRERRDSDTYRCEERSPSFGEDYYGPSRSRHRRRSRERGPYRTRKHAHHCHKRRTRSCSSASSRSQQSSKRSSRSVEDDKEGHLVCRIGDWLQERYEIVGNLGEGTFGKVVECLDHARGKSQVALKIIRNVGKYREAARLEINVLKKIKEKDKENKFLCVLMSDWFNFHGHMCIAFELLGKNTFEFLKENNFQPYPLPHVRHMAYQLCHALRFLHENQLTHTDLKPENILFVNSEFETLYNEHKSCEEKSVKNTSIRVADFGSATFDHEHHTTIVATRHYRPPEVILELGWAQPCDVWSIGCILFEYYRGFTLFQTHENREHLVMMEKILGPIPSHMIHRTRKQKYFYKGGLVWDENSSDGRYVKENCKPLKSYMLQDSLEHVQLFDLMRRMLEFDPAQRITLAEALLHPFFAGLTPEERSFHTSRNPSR

Cc1cc2ncc(-c3ccc4cnc(NC(=O)c5ccnc(N6CCN(C)CC6)c5)cc4c3)cc2[nH]1 [Compound 87]
EC50 ([1]; BXPC-3, BxPC3 cell line, read-out: Pancreatic cancer, EC50 BxPC3): 1.25 µM | EC50 ([1]; CAPAN-1, Capan1 cell line, read-out: Pancreatic cancer, EC50 Capan1): 0.95 µM | EC50 ([1]; Capan-2, Capan2 cell line, read-out: Pancreatic cancer, EC50 Capan2): 1.16 µM | EC50 ([1]; MIA PaCa-2 cell line, read-out: Pancreatic cancer, EC50 MIA PaCa-2): 0.759 µM | EC50 ([1]; PANC 05.04 cell line, read-out: Pancreatic cancer, EC50 PANC 05.04): 2.88 µM | EC50 ([1]; PANC-1 cell line, read-out: Pancreatic cancer, EC50 PANC-1): 2.63 µM | EC50 ([1]; UPAFII cell line, read-out: Pancreatic cancer, EC50 UPAFII): 1.03 µM | EC50 ([2]; A-427, A427 cell line, read-out: Lung cancer, EC50 (μM) A427): 1.12 µM | EC50 ([2]; HCC78, HCC-78 cell line, read-out: Lung cancer, EC50 (μM) HCC-78): 3.41 µM | EC50 ([2]; NCI-H460 cell line, read-out: Lung cancer, EC50 (μM) NCI-H460): 1.17 µM | EC50 ([2]; NCI-H522 cell line, read-out: Lung cancer, EC50 (μM) NCI-H522): 0.522 µM | EC50 ([3]; HCT-116, HCT116 cell line, read-out: Colorectal cancer, EC50 (μM) HCT116): 0.904 µM | EC50 ([3]; HT-29, HT29 cell line, read-out: Colorectal cancer, EC50 (μM) HT29): 1.32 µM | EC50 ([3]; SW-620, SW620 cell line, read-out: Colorectal cancer, EC50 (μM) SW620): 0.798 µM | EC50 ([3]; DLD-1 cell line, read-out: Colorectal cancer, EC50 (μM) DLD-1): 1.1 µM | EC50 ([3]; SW48 cell line, read-out: Colorectal cancer, EC50 (μM) SW48): 0.394 µM | EC50 ([3]; SW480 cell line, read-out: Colorectal cancer, EC50 (μM) SW480): 1.7 µM | EC50 (CLK2): 0.0049 µM | EC50 ([4]; SNU-398, SNU398 cell line, read-out: Liver cancer, EC50 SNU398): 0.177 µM | EC50 ([4]; HEPG2 cell line, read-out: Liver cancer, EC50 HEPG2): 6.94 µM | EC50 ([4]; PLC/PRF/5 cell line, read-out: Liver cancer, EC50 PLC/PRF/5): 4.29 µM | EC50 ([5]; DU-145, read-out: Prostate cancer EC50 Du-145): 1.48 µM | EC50 ([5]; PC-3, PC3 cell line, inhibition of cancer cell proliferation, read-out: Prostate cancer EC50 PC3): 1.64 µM | EC50 ([5]; 22Rv1 cell line, inhibition of cancer cell proliferation, read-out: Prostate cancer EC50 22Rv1): 0.643 µM | EC50 ([5]; LNCap clone FGC cell line, inhibition of cancer cell proliferation, read-out: Prostate cancer EC50 LNCap clone FGC): 7.84 µM | EC50 ([5]; VCaP (Sigma) cell line, inhibition of cancer cell proliferation, read-out: Prostate cancer EC50 VCaP (Sigma)): 0.525 µM | EC50 ([6]; DND41, DND-41 cell line, read-out: Haematopoietic & Lymphoid tumors, EC50 (μM) DND-41): 0.538 µM | EC50 ([6]; MV4-11, MV-4-11 cell line, read-out: Haematopoietic & Lymphoid tumors, EC50 (μM) MV-4-11): 0.542 µM | EC50 ([6]; Rec1, REC-1 cell line, read-out: Haematopoietic & Lymphoid tumors, EC50 (μM) REC-1): 0.203 µM | EC50 ([6]; SU-DHL-4, SUDHL4 cell line, read-out: Haematopoietic & Lymphoid tumors, EC50 (μM) SUDHL4): 0.514 µM | EC50 ([6]; HL-60 cell line, read-out: Haematopoietic & Lymphoid tumors, EC50 (μM) HL-60): 2.46 µM | EC50 ([6]; JM1 cell line, read-out: Haematopoietic & Lymphoid tumors, EC50 (μM) JM1): 0.21 µM | EC50 ([6]; JURKAT, Clone E6-1 cell line, read-out: Haematopoietic & Lymphoid tumors, EC50 (μM) JURKAT, Clone E6-1): 1.26 µM | EC50 ([6]; JeKo-1 cell line, read-out: Haematopoietic & Lymphoid tumors, EC50 (μM) JeKo-1): 0.259 µM | EC50 ([6]; KASUMI-1 cell line, read-out: Haematopoietic & Lymphoid tumors, EC50 (μM) KASUMI-1): 1.16 µM | EC50 ([6]; Loucy cell line, read-out: Haematopoietic & Lymphoid tumors, EC50 (μM) Loucy): 0.916 µM | EC50 ([6]; MOLT-4 cell line, read-out: Haematopoietic & Lymphoid tumors, EC50 (μM) MOLT-4): 1.35 µM | EC50 ([6]; TF-1 cell line, read-out: Haematopoietic & Lymphoid tumors, EC50 (μM) TF-1): 3.93 µM | EC50 ([6]; TOLEDO cell line, read-out: Haematopoietic & Lymphoid tumors, EC50 (μM) TOLEDO): 0.337 µM | EC50 (all 50 cell lines): 1.83 µM | EC50 ([7]; PA-1, PA1 cell line, read-out: Ovarian cancer, EC50 (μM) PA1): 1.36 µM | EC50 ([7]; TOV112D, TOV-112D cell line, read-out: Ovarian cancer, EC50 (μM) TOV-112D): 1.43 µM | EC50 ([7]; OV-90 cell line, read-out: Ovarian cancer, EC50 (μM) OV-90): 3.65 µM | EC50 ([7]; OVCAR-3 cell line, read-out: Ovarian cancer, EC50 (μM) OVCAR-3): 0.866 µM | EC50 (HCC1599): 1.05 µM | EC50 (CAMA1): 2.65 µM | EC50 (T47D): 7.09 µM | EC50 (ZR-75-1): 2.96 µM | EC50 (BT-549): 1.55 µM | EC50 (MCF7): 4.12 µM | EC50 (DU4475): 1.37 µM | EC50 (MDA-MB-231-Luc): 3.05 µM | EC50 (CLK3): 0.0382 µM
